# Earlier results as cited in patent US8575155B2, “Composition and method to modify sperm function and increase male gender ratio in mammals” (priority 2008, dated 2013).
# Key:
# [1] = test system: early-staged mouse embryos
smiles,measurement,setting,value
"CCN(CC)c1cc2c(cc1C)Nc1ccc(N)cc1O2 [BCB, 2-methyl-3-diethylamino-7-amino phenoxazine]",increase in oxidation of glucose through the HMS,bovine oocytes,15 fold
same,increase in glucose oxidation through glycolysis,bovine oocytes; compared with the increase through the HMS,somewhat less increase
same,toxicity of BCB and its metabolites,[1],relatively non-toxic
